Laboratory results as given in PMC12316928, “Synthesis and evaluation of novel thiohydantoin derivatives for antidiabetic activity using in silico in vitro and in vivo methods” (Scientific Reports, 2025).
≈ marks a conversion by molar mass, not a printed value. Where “and” joins values, the source holds several entries; their conditions need not be identical. Identical values can stand only once. Entries after “also recorded” stand apart in the source; their conditions may differ.

Legend:
[1] = DPPH free radical scavenging assay
Experimental: The antioxidant activity of synthesized compounds was evaluated using the DPPH free-radical scavenging assay, following the methodology outlined by[34]. This assay is based on the principle that the stable free radical DPPH undergoes a color change from deep purple to yellow upon reduction, indicating hydrogen donation from antioxidant compounds. Different concentrations (3.12, 6.25, 12.5, 25, 50, 100, and 200 µg/mL) of test compounds were prepared in methanol. A 200 µL aliquot of each concentration was mixed with 50 µL of freshly prepared DPPH solution (0.659 mM). The reaction mixtures were incubated at room temperature for 20 min in the dark. Absorbance was recorded at 510 nm using an ELISA microplate reader. Trolox was employed as the reference antioxidant, and the percentage of inhibition was calculated using the following equation:
% Inhibition = [(A0 − A1)/A0] × 100.
Where A0 is the absorbance of the control, and A1 is the absorbance of the sample[34].

[2] = system: 3T3 fibroblast cell line; test: Cytotoxicity MTT assay; assay type: cell-based
Experimental: (§1) The cytotoxic effects of the selected compounds were evaluated against the 3T3 fibroblast cell line (Sigma-Aldrich, product no. 90020107) using the MTT (3-(4,5-dimethylthiazol-2-yl)−2,5-diphenyl tetrazolium bromide) assay, following the protocol established by Mosmann[38]. A cell suspension containing 1 × 10⁵ cells per well was seeded into a 96-well plate and incubated at 37 °C with 5% CO₂ for 48 h. The cells were then treated with different concentrations of test compounds (4, 16, 63, 250, and 1000 µg/mL, dissolved in DMSO) and incubated for an additional 48 h. Following incubation, 180 µL of MTT solution (5 mg/mL in PBS) was added to each well and incubated for 4 h. The formazan crystals formed were solubilized, and absorbance was measured at 570 nm using an ELISA reader. Celecoxib was used as a positive control.

[3] = Cytotoxicity MTT assay; assay type: cell-based; settings: mouse, 3T3 fibroblast cells, 48 h, Mean ± SD, n = 3, read-out: IC₅₀ cytotoxicity MTT
Experimental: as §1

[4] = system: STZ-induced diabetic rats; test: Physiological parameters (lipid profile); assay type: in vivo, Sprague Dawley rats; settings: Fig. 1; for HDL / LDL / triglycerides: after treatment
Experimental: (§2) Diabetes will be induced in rats (n = 6 per group) by a single intraperitoneal injection of 60-100 mg/kg body weight (BW) streptozotocin dissolved in normal saline. After 5 days of streptozotocin injection, the tail vein blood will be collected to determine the fasting blood glucose (FBG) level. Only rats with FBG over 200 mg/dl will be considered diabetic and used for further experimentation.
Animals will be sacrificed after […] of treatment and parameters including LDL, triglycerides, HDL cholesterol, and glucose will be determined by using KONELAB SYSTEM (Thermo Fisher Scientific, Finland) according to manufacturer’s guidelines.

[5] = system: STZ-induced diabetic rats; test: Fasting blood glucose and oral glucose tolerance test (OGTT); assay type: in vivo, Sprague Dawley rats; settings: for OGTT (after 120 min): 120 min after glucose 2.0 g/kg; for Fasting blood glucose: Table 7, mean ± SD, 5 rats per group; for FBG and OGTT reduction in words: compared to diabetic control
Experimental: […] After 5 days of streptozotocin injection, the tail vein blood will be collected to determine the fasting blood glucose (FBG) level. Only rats with FBG over 200 mg/dl will be considered diabetic and used for further experimentation.
This assay will be performed in animals after fasting for an overnight (12 h). Then, rats will receive a bolus of glucose (2.0 g/kg body weight) followed by test molecule or control and plasma glucose will be measured from blood collected from tail vein at 0, 30, 60, 90 and 120 min after glucose administration. Plasma glucose levels will be analyzed using commercially available glucometer kits[40].

[6] = system: STZ-induced diabetic rats; test: Effect on FBG, body weight and HbA1C over 6 weeks; assay type: in vivo, Sprague Dawley rats; parameters: % Reduction in FBG: concentration or dose not given beside the values; settings: for BW (Day 0) / FBG (Day 0): Day 0, baseline; for % Change in BW / % Reduction in FBG: Day 0 to Day 42; for BW (Day 42) / FBG (Day 42): Day 42 of treatment; for HbA1C: end of 6-week treatment
Experimental: as §2
Diabetic Rats (n = 6 per group) will be randomly assigned to groups of six animals each in order to examine the impact of synthetic derivatives on FBG level, BW, and HbA1C. The course of treatment will last for six weeks. At the beginning of the experiment and at weekly intervals during the first 42 days of therapy, the FBG level and BW will be measured. Rats will be denied food for 12 h while fasting, but they will have unrestricted access to water. Commercial glucose oxidase kits will be used to measure the blood glucose level. Blood 7 will be collected through cardiac puncture at the end of study period and levels of HbA1C will be determined. Metformin will be used as standard for comparison purpose.

[7] = target: T1, α-glucosidase (EC3.2.1.20) (Saccharomyces cerevisiae, UniProt P53341); test: α-Glucosidase inhibitory activity assay; assay type: biochemical; settings: for inhibition at 200 µg/mL: read-out: %Inhibition (200 µg/ml) alpha glucosidase
T1 construct: purchased Sigma-Aldrich
Experimental: The ability of the synthesized compounds to inhibit α-glucosidase was determined as per the method described by[35]. […] After incubation at 37 °C for 10 min, the reaction was initiated by adding 25 µL of substrate (4 mM) and further incubating at 37 °C for 20 min. The absorbance was measured at 405 nm.

[8] = relative to positive control (diabetic rats), Fig. 2

T1 sequence (P53341 whole entry): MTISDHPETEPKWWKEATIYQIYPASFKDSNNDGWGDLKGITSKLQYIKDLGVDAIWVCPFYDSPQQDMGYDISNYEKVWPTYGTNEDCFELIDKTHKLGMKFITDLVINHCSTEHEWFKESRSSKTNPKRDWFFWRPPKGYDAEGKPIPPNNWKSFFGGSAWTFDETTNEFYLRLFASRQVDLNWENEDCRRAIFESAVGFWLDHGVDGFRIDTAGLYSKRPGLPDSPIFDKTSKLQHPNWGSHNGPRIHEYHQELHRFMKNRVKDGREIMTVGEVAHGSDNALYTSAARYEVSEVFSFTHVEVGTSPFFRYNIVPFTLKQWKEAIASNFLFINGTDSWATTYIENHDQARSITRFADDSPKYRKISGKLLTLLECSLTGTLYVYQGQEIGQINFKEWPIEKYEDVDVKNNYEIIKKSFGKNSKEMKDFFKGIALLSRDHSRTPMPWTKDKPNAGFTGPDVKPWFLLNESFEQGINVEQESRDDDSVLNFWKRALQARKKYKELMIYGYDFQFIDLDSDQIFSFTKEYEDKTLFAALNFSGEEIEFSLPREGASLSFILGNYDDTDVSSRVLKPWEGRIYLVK

| Structure (SMILES) | DPPH free radical scavenging % inhibition ([1]; 3.12 µg/mL) [%] | DPPH free radical scavenging % inhibition ([1]; 6.25 µg/mL) [%] | DPPH free radical scavenging % inhibition ([1]; 12.5 µg/mL) [%] | DPPH free radical scavenging % inhibition ([1]; 25 µg/mL) [%] | DPPH free radical scavenging % inhibition ([1]; 50 µg/mL) [%] | DPPH free radical scavenging % inhibition ([1]; 100 µg/mL) [%] | DPPH free radical scavenging % inhibition ([1]; 200 µg/mL) [%] | Cytotoxicity category [2] | IC50 at 48 h [3] [µg/mL] | OGTT (after 120 min) [5] [mg/dL] | Fasting blood glucose [5] [mg/dL] | FBG and OGTT reduction in words [5] | percentage reduction in FBG [5, 8] [%] | BW (Day 0) [6] [g] | FBG (Day 0) [6] [mg/dL] | % Reduction in FBG [6] [%] | BW (Day 42) [6] [g] | FBG (Day 42) [6] [mg/dL] | HbA1C [6] | inhibition at 200 µg/mL [7] [%] | further results |
| --- | --- | --- | --- | --- | --- | --- | --- | --- | --- | --- | --- | --- | --- | --- | --- | --- | --- | --- | --- | --- | --- |
| O=C1O[C@H]([C@@H](O)CO)C(O)=C1O [Ascorbic Acid, reference compound] | 30.2 ± 1.9 | 50.6 ± 2.5 | 68.9 ± 2.8 | 82.3 ± 3.1 | 89.6 ± 3.3 | 94.2 ± 3.5 | 96.8 ± 3.7 | – | – | – | – | – | – | – | – | – | – | – | – | – | – |
| Cc1ccc(-c2cc(C(F)(F)F)nn2-c2ccc(S(N)(=O)=O)cc2)cc1 [Celecoxib, reference compound] | – | – | – | – | – | – | – | Moderate cytotoxicity | 342 ± 9.7 (≈ 897 µM) | – | – | – | – | – | – | – | – | – | – | – | – |
| O=C1CN(S(=O)(=O)c2cccc(C(=O)O)c2)C(=S)N1 [FP2, 3-(4-oxo-2-sulfanylideneimidazolidine-1-sulfonyl)benzoic acid] | 18.4 ± 1.3 | 31.3 ± 1.9 | 47.6 ± 2.4 | 62.9 ± 2.8 | 74.5 ± 3.1 | 79.8 ± 3.2 | 82.6 ± 3.3 | Low cytotoxicity | 845 ± 12.7 (≈ 2810 µM) | 288.0 ± 9.5 | 229.9 ± 7.6 | significant reductions | 18.5 | 218.3 ± 7.5 | 280.5 ± 10.1 | 24.9 | 202.8 ± 7.9 | 210.7 ± 9.6 | 7.5% and 7.5 ± 0.4% | 48.1 ± 0.94 | lipid profile effect in words [4]: moderate improvements; % Change in BW [6]: −7.1%; IC₅₀ (concentration required to inhibit 50% of DPPH free radicals) [1]: 52.4 ± 2.5 µg/mL |
| CC(=O)c1cccc(S(=O)(=O)N2CC(=O)NC2=S)c1 [FP4, 1-(3-acetylbenzene-1-sulfonyl)−2-sulfanylideneimidazolidin-4-one] | 22.1 ± 1.5 | 38.2 ± 2.1 | 55.7 ± 2.6 | 71.6 ± 3.0 | 81.2 ± 3.5 | 85.9 ± 3.7 | 87.4 ± 3.9 | Moderate cytotoxicity | 598 ± 11.4 (≈ 2010 µM) | 275.2 ± 9.1 | 218.4 ± 7.3 | – | 22.6 | 215.9 ± 7.8 | 279.1 ± 9.7 | 28.9 | 205.7 ± 8.6 | 198.4 ± 8.3 | 7.2 ± 0.3% | 51.4 ± 1.25 | HDL [4]: 42.3 ± 2.5 mg/dL; LDL [4]: 54.8 ± 3.1 mg/dL; triglycerides [4]: 112.5 ± 6.2 mg/dL; percentage reduction in OGTT [5, 8]: 19.4%; % Change in BW [6]: −4.7%; IC50 ([7]; Mean ± SD, read-out: IC50 alpha glucosidase (converted)): 434 µM |
| Cc1ccc(S(=O)(=O)N2CC(=O)NC2=S)cc1C(=O)O [FP5, 2-methyl-5-(4-oxo-2-sulfanylideneimidazolidine-1-sulfonyl)benzoic acid] | 17.8 ± 1.2 | 29.6 ± 1.7 | 44.5 ± 2.3 | 58.7 ± 2.6 | 69.3 ± 2.9 | 73.1 ± 3.1 | 78.9 ± 3.3 | Low cytotoxicity | 690 ± 13.2 (≈ 2190 µM) | 295.3 ± 9.9 | 236.1 ± 8.1 | significant reductions | 16.3 | 216.8 ± 8.1 | 281.0 ± 9.9 | 21.6 | 200.1 ± 8.5 | 220.2 ± 9.2 | 7.8% and 7.8 ± 0.3% | 33.2 ± 0.87 | lipid profile effect in words [4]: moderate improvements; % Change in BW [6]: −7.7%; IC₅₀ (concentration required to inhibit 50% of DPPH free radicals) [1]: 58.1 ± 2.6 µg/mL; alpha-glucosidase inhibition in words [7]: inactive |
| COc1ccc(S(=O)(=O)N2CC(=O)NC2=S)cc1C(=O)O [FP6, 2-methoxy-5-(4-oxo-2-sulfanylideneimidazolidine-1-sulfonyl)benzoic acid] | 8.5 ± 0.8 | 16.2 ± 1.1 | 24.9 ± 1.6 | 36.4 ± 2.2 | 44.7 ± 2.5 | 49.8 ± 2.6 | 53.6 ± 2.8 | negligible cytotoxicity; also recorded: Non-toxic | > 900 | 307.5 ± 10.4 | 249.1 ± 8.5 | minor reductions | – | – | – | – | – | – | – | 36.4 ± 1.03 | alpha-glucosidase inhibition in words [7]: inactive; IC₅₀ cytotoxicity MTT ([2]; 48 h, Mean ± SD, n = 3): 930.4 ± 10.6 µg/mL |
| CN(C)C(=N)N=C(N)N [Metformin, reference compound] | – | – | – | – | – | – | – | – | – | 159.4 ± 8.3 | 119.2 ± 6.5 | – | – | 216.2 ± 8.0 | 282.3 ± 10.5 | 49.5 | 225.6 ± 9.4 | 142.5 ± 7.8 | 6.1 ± 0.3% | – | HDL [4]: 49.2 ± 2.7 mg/dL; LDL [4]: 45.1 ± 2.4 mg/dL; triglycerides [4]: 94.3 ± 5.1 mg/dL |
| OCCN1C[C@H](O)[C@@H](O)[C@H](O)[C@H]1CO [Miglitol, reference compound] | – | – | – | – | – | – | – | – | – | – | – | – | – | – | – | – | – | – | – | – | inhibition at 50 µg/mL ([7]; read-out: %Inhibition alpha glucosidase): 87.9 ± 1.09% |
